According to patent US20060205774A1, “4-(4-(Heterocyclylakoxy) phenyl-1-(heterocyclyl-carbonyl) piperidine derivavites and related compounds as histamine h3 antagonists for the treatment of neurological diseases such as alzheimer's” (priority 2003, published 2006):

Target: T1, histamine H3 receptor (Homo sapiens, UniProt Q9Y5N1)
T1 construct: expressed in transfected cells; host or cells: CHO K1 cells carrying pSwitch, transfected with pGeneH3, mifepristone-induced; clone 3H3; membrane preparation
Assay: Histamine H3 functional antagonist assay (GTPγS SPA on membranes)
Format: biochemical
Settings: membranes of CHO K1 cells expressing human histamine H3; [35S]GTPγS; histamine 0.3 μM
Protocol: A membrane preparation containing histamine H3 receptors may be prepared in accordance with the following procedures:
Ligated DNA was transformed into competent DH5α E. coli host bacterial cells and plated onto Luria Broth (LB) agar containing Zeocin™ (an antibiotic which allows the selection of cells expressing the sh ble gene which is present on pGene and pSwitch) at 50 μg ml^−1. Colonies containing the re-ligated plasmid were identified by restriction analysis. DNA for transfection into mammalian cells was prepared from 250 ml cultures of the host bacterium containing the pGeneH3 plasmid and isolated using a DNA preparation kit (Qiagen Midi-Prep) as per manufacturers guidelines (Qiagen).
CHO K1 cells previously transfected with the pSwitch regulatory plasmid (InVitrogen) were seeded at 2×10e6 cells per T75 flask in Complete Medium, containing Hams F12 (GIBCOBRL, Life Technologies) medium supplemented with 10% v/v dialysed foetal bovine serum, L-glutamine, and hygromycin (100 μg ml^−1), 24 hours prior to use. Plasmid DNA was transfected into the cells using Lipofectamine plus according to the manufacturers guidelines (InVitrogen). 48 hours post transfection cells were placed into complete medium supplemented with 500 μg ml^−1 Zeocin™.
10-14 days post selection 10 nM Mifepristone (InVitrogen), was added to the culture medium to induce the expression of the receptor. […] Approximately 1×10e7 cells were examined for receptor expression by staining with a rabbit polyclonal antibody, 4a, raised against the N-terminal domain of the histamine H3 receptor, incubated on ice for 60 minutes, followed by two washes in sorting medium. […] Following two further washes with Sorting Medium, cells were filtered through a 50 μm Filcon™ (BD Biosciences) and then analysed on a FACS Vantage SE Flow Cytometer fitted with an Automatic Cell Deposition Unit. […] Positively stained cells were sorted as single cells into 96-well plates, containing Complete Medium containing 500 μg ml^−1 Zeocin™ and allowed to expand before reanalysis for receptor expression via antibody and ligand binding studies. […]

T1 sequence (Q9Y5N1 whole entry): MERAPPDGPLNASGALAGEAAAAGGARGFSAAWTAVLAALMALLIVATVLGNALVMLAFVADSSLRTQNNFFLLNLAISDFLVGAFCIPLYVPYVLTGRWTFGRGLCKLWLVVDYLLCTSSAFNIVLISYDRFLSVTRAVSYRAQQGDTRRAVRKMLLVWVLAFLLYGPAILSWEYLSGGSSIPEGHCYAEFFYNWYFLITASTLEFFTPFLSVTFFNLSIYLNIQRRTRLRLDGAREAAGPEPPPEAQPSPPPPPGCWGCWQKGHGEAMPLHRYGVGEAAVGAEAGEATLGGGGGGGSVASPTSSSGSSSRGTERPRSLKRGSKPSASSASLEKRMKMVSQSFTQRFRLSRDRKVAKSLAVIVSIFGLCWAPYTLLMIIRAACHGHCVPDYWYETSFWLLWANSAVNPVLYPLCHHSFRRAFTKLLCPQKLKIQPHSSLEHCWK

| Kb [nM] | SMILES |
| --- | --- |
| < 1 | CC(C)N1CCC(Oc2ccc(C3CCN(C(=O)c4ccc(C#N)cc4)CC3)cc2)CC1 [Example E12, 4-{[4-(4-{[1-(1-Methylethyl)-4-piperidinyl]oxy}phenyl)-1-piperidinyl]carbonyl}benzonitrile] |
| < 1 | CC(C)N1CCC(Oc2ccc(C3CCN(C(=O)c4ccc(C#N)nc4)CC3)cc2)CC1 [Example E51, 5-{[4-(4-{[1-(1-Methylethyl)-4-piperidinyl]oxy}phenyl)-1-piperidinyl]carbonyl}-2-pyridinecarbonitrile] |
| < 1 | CC(C)N1CCC(Oc2ccc(C3CCN(C(=O)c4ccc(C(F)(F)F)nc4)CC3)cc2)CC1 [Example E52, 5-{[4-(4-{[1-(1-Methylethyl)-4-piperidinyl]oxy}phenyl)-1-piperidinyl]carbonyl}-2-(trifluoromethyl)pyridine] |
